These results are taken from patent US6407103B2, “Indeno [1,2-c] pyrazol-4-ones and their uses” (Bristol-Myers Squibb Pharma Company, priority 1998, dated 2002).

The structures appear in SMILES notation. Where a name gives a salt, the structure may show the parent alone.

As a reminder, the melting point is the temperature of the solid-liquid transition.

Turning to `CC(C)(C)OC(=O)N1CCN(C(=O)N2CCC(c3[nH]nc4c3C(=O)c3c(NC(=O)NN5CCOCC5)cccc3-4)CC2)CC1` (as salt: TFA) [Example CCLXXI, 3-(1-(4-(t-butoxycarbonyl)piperazinocarbonyl)piperidin-4-yl)-5-(morpholinocarbamoylamino)indeno[1,2-c]pyrazol-4-one], the melting point was determined as 231 °C.

`O=C(Nc1cccc2c1C(=O)c1c-2n[nH]c1C1CCN(C(=O)N2C[C@@H]3C[C@H]2CN3)CC1)NN1CCOCC1` (as salt: TFA) [Example CCLXXII, 3-(1-(((1S,4S)-(+)-2,5-diazabicyclo[2.2.1]hept-2-yl)carbonyl)piperidin-4-yl)-5-(morpholinocarbamoylamino)indeno[1,2-c]pyrazol-4-one] registered a melting point of 196 °C.

Compound `CN1C[C@@H]2C[C@H]1CN2C(=O)N1CCC(c2[nH]nc3c2C(=O)c2c(NC(=O)NN4CCOCC4)cccc2-3)CC1` (as salt: TFA) [Example CCLXXIII, 3-(1-(((1S,4S)-(+)-5-methyl-2,5-diazabicyclo[2.2.1]hept-2-yl)carbonyl)piperidin-4-yl)-5-(morpholinocarbamoylamino)indeno[1,2-c]pyrazol-4-one] came in with a melting point of 225 °C.

On to `CC(C)(C)OC(=O)NCCCCC(=O)N1CCC(c2[nH]nc3c2C(=O)c2c(NC(=O)NN4CCOCC4)cccc2-3)CC1` (as salt: TFA) [Example CCLXXIX, 3-(1-(4-(t-butoxycarbonylamino)butylcarbonyl)piperidin-4-yl)-5-(morpholinocarbamoylamino)indeno[1,2-c]pyrazol-4-one], for which the melting point worked out at 98 °C.

As to `NCCCCC(=O)N1CCC(c2[nH]nc3c2C(=O)c2c(NC(=O)NN4CCOCC4)cccc2-3)CC1` (as salt: TFA) [Example CCLXXVII, 3-(1-(4-aminobutylcarbonyl)piperidin-4-yl)-5-(morpholinocarbamoylamino)indeno[1,2-c]pyrazol-4-one], the melting point is 103 °C.

`CN(C)CCCCC(=O)N1CCC(c2[nH]nc3c2C(=O)c2c(NC(=O)NN4CCOCC4)cccc2-3)CC1` (as salt: TFA) [Example CCLXXVIII, 3-(1-(4-(dimethylamino)butylcarbonyl)piperidin-4-yl)-5-(morpholinocarbamoylamino)indeno[1,2-c]pyrazol-4-one] gave a melting point of 68 °C.

Regarding `CN1CCC(C(=O)N2CCC(c3[nH]nc4c3C(=O)c3c(NC(=O)NN5CCOCC5)cccc3-4)CC2)CC1` (as salt: TFA) [Example CCLXXX, 3-(1-((1-methylpiperidin-4-yl)carbonyl)piperidin-4-yl)-5-(morpholinocarbamoylamino)indeno[1,2-c]pyrazol-4-one], the melting point came to 148 °C.

`N[C@H]1CC[C@@H](C(=O)N2CCC(c3[nH]nc4c3C(=O)c3c(NC(=O)NN5CCOCC5)cccc3-4)CC2)CC1` (as salt: TFA) [Example CCLXXXII, 3-(1-(cis-4-aminocyclohexylcarbonyl)piperidin-4-yl)-5-(morpholinocarbamoylamino)indeno[1,2-c]pyrazol-4-one] showed a melting point of 212 °C.

For the compound `NC1CCC(C(=O)N2CCC(c3[nH]nc4c3C(=O)c3c(NC(=O)NN5CCOCC5)cccc3-4)CC2)CC1` (centres unmarked) (as salt: TFA) [Example CCLXXXIII, 3-(1-(4-aminocyclohexylcarbonyl)piperidin-4-yl)-5-(morpholinocarbamoylamino)indeno[1,2-c]pyrazol-4-one], the melting point was 202 °C.

With `CC(C)(C)OC(=O)NC1CCC(C(=O)N2CCC(c3[nH]nc4c3C(=O)c3c(NC(=O)NN5CCOCC5)cccc3-4)CC2)CC1` (centres unmarked) (as salt: TFA) [Example CCLXXXV, 3-(1-(4-(t-butoxycarbonylamino)cyclohexylcarbonyl)piperidin-4-yl)-5-(morpholinocarbamoylamino)indeno[1,2-c]pyrazol-4-one], the melting point came to 210 °C.

`O=C(Nc1cccc2c1C(=O)c1c-2n[nH]c1C1CCN(C(=O)C2CCCNC2)CC1)NN1CCOCC1` (centres unmarked) (as salt: TFA) [Example CCLXXXVII, 3-(1-(piperidin-3-ylcarbonyl)piperidin-4-yl)-5-(morpholinocarbamoylamino)indeno[1,2-c]pyrazol-4-one]: the melting point turned out to be 169 °C.

In turn, `CN1CCCC(C(=O)N2CCC(c3[nH]nc4c3C(=O)c3c(NC(=O)NN5CCOCC5)cccc3-4)CC2)C1` (centres unmarked) (as salt: TFA) [Example CCLXXXVIII, 3-(1-(1-methylpiperidin-3-ylcarbonyl)piperidin-4-yl)-5-(morpholinocarbamoylamino)indeno[1,2-c]pyrazol-4-one] had a melting point of 158 °C.

`COC[C@H]1CCCN1NC(=O)Nc1cccc2c1C(=O)c1c-2n[nH]c1-c1ccc(C(=O)N2CCN(C(=O)OC(C)(C)C)CC2)s1` (as salt: TFA) [Example CCV, 3-(5-(4-(t-butoxycarbonyl)piperazinocarbonyl)-2-thienyl)-5-(2(R)-(methoxymethyl)pyrrolidinocarbamoylamino)indeno[1,2-c]pyrazol-4-one] returned a melting point of more than 300 °C.

`NC1CCCC(C(=O)N2CCC(c3[nH]nc4c3C(=O)c3c(NC(=O)NN5CCOCC5)cccc3-4)CC2)C1` (centres unmarked) (as salt: TFA) [Example CCXC, 3-(1-(3-aminocyclohexylcarbonyl)piperidin-4-yl)-5-(morpholinocarbamoylamino)indeno[1,2-c]pyrazol-4-one]: the melting point stood at 201 °C.

With `CN(C)C1CCCC(C(=O)N2CCC(c3[nH]nc4c3C(=O)c3c(NC(=O)NN5CCOCC5)cccc3-4)CC2)C1` (centres unmarked) (as salt: TFA) [Example CCXCI, 3-(1-(3-(dimethylamino)cyclohexylcarbonyl)piperidin-4-yl)-5-(morpholinocarbamoylamino)indeno[1,2-c]pyrazol-4-one], the melting point turned out to be 153 °C.

With `CO[C@H]1CC[C@H](C(=O)N2CCC(c3[nH]nc4c3C(=O)c3c(NC(=O)NN5CCOCC5)cccc3-4)CC2)CC1` (as salt: TFA) [Example CCXCII, 3-(1-(trans-4-methoxycyclohexylcarbonyl)piperidin-4-yl)-5-(morpholinocarbamoylamino)indeno[1,2-c]pyrazol-4-one], the melting point came out at 246 °C.

Compound `CO[C@H]1CC[C@@H](C(=O)N2CCC(c3[nH]nc4c3C(=O)c3c(NC(=O)NN5CCOCC5)cccc3-4)CC2)CC1` (as salt: TFA) [Example CCXCIII, 3-(1-(cis-4-methoxycyclohexylcarbonyl)piperidin-4-yl)-5-(morpholinocarbamoylamino)indeno[1,2-c]pyrazol-4-one] had a melting point of 178 °C.

Regarding `Nc1ccc(CC(=O)N2CCC(c3[nH]nc4c3C(=O)c3c(NC(=O)NN5CCOCC5)cccc3-4)CC2)cc1` (as salt: TFA) [Example CCXCIV, 3-(1-(4-aminobenzylcarbonyl)piperidin-4-yl)-5-(morpholinocarbamoylamino)indeno[1,2-c]pyrazol-4-one], the melting point came to 177 °C.

`CN(C)c1ccc(CC(=O)N2CCC(c3[nH]nc4c3C(=O)c3c(NC(=O)NN5CCOCC5)cccc3-4)CC2)cc1` (as salt: TFA) [Example CCXCV, 3-(1-(4-(dimethylamino)benzylcarbonyl)piperidin-4-yl)-5-(morpholinocarbamoylamino)indeno[1,2-c]pyrazol-4-one]: the melting point stood at 107 °C.

In the case of `Nc1ccc(C(=O)N2CCC(c3[nH]nc4c3C(=O)c3c(NC(=O)NN5CCOCC5)cccc3-4)CC2)cc1` (as salt: TFA) [Example CCXCVII, 3-(1-(4-aminophenylcarbonyl)piperidin-4-yl)-5-(morpholinocarbamoylamino)indeno[1,2-c]pyrazol-4-one], the melting point amounted to 198 °C.

Turning to `CN(C)c1ccc(C(=O)N2CCC(c3[nH]nc4c3C(=O)c3c(NC(=O)NN5CCOCC5)cccc3-4)CC2)cc1` (as salt: TFA) [Example CCXCVIII, 3-(1-(4-(dimethylamino)phenylcarbonyl)piperidin-4-yl)-5-(morpholinocarbamoylamino)indeno[1,2-c]pyrazol-4-one], the melting point was determined as 189 °C.

`O=C(Nc1cccc2c1C(=O)c1c-2n[nH]c1-c1ccc(N2CCNCC2)cc1)NN1CCOCC1` (as salt: TFA) [Example CCXI, 3-(4-piperazinophenyl)-5-(morpholinocarbamoylamino)indeno[1,2-c]pyrazol-4-one] yielded a melting point of 263 °C.

Take `NC(=O)Nc1cccc2c1C(=O)c1c-2n[nH]c1-c1ccc(N2CCNCC2)cc1` (as salt: TFA) [Example CCXII, 3-(4-piperazinophenyl)-5-(carbamoylamino)indeno[1,2-c]pyrazol-4-one]: the melting point turned out to be 257 °C.

Consider `NNC(=O)Nc1cccc2c1C(=O)c1c-2n[nH]c1-c1ccc(N2CCNCC2)cc1` (as salt: TFA) [Example CCXIII, 3-(4-piperazinophenyl)-5-(aminocarbamoylamino)indeno[1,2-c]pyrazol-4-one], for which the melting point was found to be 257 °C.

The compound `CN(C)CC(=O)Nc1cccc2c1C(=O)c1c-2n[nH]c1-c1ccc(N2CCNCC2)cc1` (as salt: TFA) [Example CCXIV, 3-(4-piperazinophenyl)-5-((N,N-dimethylamino)acetamido)indeno[1,2-c]pyrazol-4-one] had a melting point of 243 °C.

The compound `CCN1CCN(c2ccc(-c3[nH]nc4c3C(=O)c3c(NC(=O)NN5CCOCC5)cccc3-4)cc2)CC1` (as salt: TFA) [Example CCXIX, 3-(4-(4-ethylpiperazino)phenyl)-5-(morpholinocarbamoylamino)indeno[1,2-c]pyrazol-4-one] yielded a melting point of 245 °C.

In turn, `CN(C)C1CCN(c2ccc(-c3[nH]nc4c3C(=O)c3c(NC(=O)NN5CCOCC5)cccc3-4)cc2)CC1` (as salt: TFA) [Example CCXLVIII, 3-(4-(4-(N,N-dimethylamino)piperidino)phenyl)-5-(morpholinocarbamoylamino)indeno[1,2-c]pyrazol-4-one] came in with a melting point of 258 °C.

In turn, `O=C(CN1CCOCC1)Nc1cccc2c1C(=O)c1c-2n[nH]c1-c1ccc(N2CCNCC2)cc1` (as salt: TFA) [Example CCXV, 3-(4-piperazinophenyl)-5-(morpholinoacetamido)indeno[1,2-c]pyrazol-4-one] registered a melting point of 259 °C.

`NCC1CCN(CC(=O)Nc2cccc3c2C(=O)c2c-3n[nH]c2-c2ccc(N3CCNCC3)cc2)CC1` (as salt: TFA) [Example CCXVII, 3-(4-piperazinophenyl)-5-(4-(aminomethyl)piperidinoacetamido)indeno[1,2-c]pyrazol-4-one]: the melting point turned out to be 239 °C.
